Experimental data from patent publication US20160317420A1, “METHOD OF IMPROVING THE APPEARANCE OF SKIN AND COMPOSITIONS THEREFOR” (The Procter & Gamble Company, priority 2015, published 2016).

Experiments:
[1] = test system: HMGB1 released from human neonatal keratinocytes exposed to CSE; test: HMGB1 Assay (in vitro stress test, cigarette smoke extract); assay type: cell-based; conditions: 0.01% w/v + CSE; for AVG HMGB1 released: keratinocytes, 24 hours, ELISA; for effect on the amount of HMGB1 released by keratinocytes exposed to CSE, relative to CSE test medium: p<0.1 significant
Description: Human neonatal keratinocytes (available from Thermo) were placed in each well of four 12-well plates. Each well also contained 2 ml of EPILIFE brand keratinocyte medium. The plates were incubated at 37 ° C. in a CO2 incubator until cell confluency reached 70%. Once the cell confluency reached 70%, the keratinocyte medium in each well was replaced with the appropriate medium for the test (i.e., control medium, CSE test medium, niacinamide (“N”)+CSE test medium or nicotinamide riboside chloride (“NR”)+CSE test medium) to produce test samples. The resulting test samples were incubated for 24 hours at 37 ° C. in a CO2 incubator, after which the medium in each cell was removed and the HMGB 1 levels were determined using an ELISA kit from IBL according to the manufacturer's instructions.
The N and NR media were made by adding either niacinamide or nicotinamide riboside chloride (available from Chromadex, Irvine, Calif.) to EPILIFE brand keratinocyte medium to produce a 0.01% w/v solution. The cigarette smoke extract was made by suctioning a lit cigarette through a vacuum flask containing 60 mL of phosphate buffered saline (“PBS”). 4 CAMEL brand cigarettes with the filters cut off were used to create a batch of CSE. The CSE was diluted 1:20 using keratinocyte medium to create the CSE test medium. The N+CSE medium and NR+CSE medium were prepared by adding CSE test medium to final dilution of 1:6 (CSE:medium) and either N or NR to final dilution of 0.01% w/v. Unmodified keratinocyte medium was used as the control.

[2] = test system: glycation reaction between the gelatin and glyceraldehyde; test: AGE Assay (in vitro suppression of AGE formation and yellowness reduction); assay type: biochemical; conditions: for % reduction in glycation rate vs. pos. ctrl.: 24-hr; for Δb* at 24-hr vs. 0-hour: blank-corrected yellowness; for ΔFLR at 24-hr vs. 0-hr: fluorescence 400/465 nm, 24 hours at 37° C.
Description: The anti-glycation ability of NR was determined as follows. Samples were prepared in a 96-well plate (3 replicates each) at a total volume of 250 μl/well. The test samples contained 112.5 μl of 2% w/v gelatin solution (commercially available from Sigma as Catalog # G1393-100 ML), 10 μl of 1 M glyceraldehyde (commercially available from Sigma as Catalog # G5001-1 G), 102.5 p1 Dulbecco's phosphate buffered saline (“DPBS”) (commercially available from Gibco's), and varying doses (0.1%, 0.5%, 1% and 5% w/v) of nicotinamide riboside chloride (“NR”) (available from Chromadex, Irvine, CA). The positive control contained 112.5 μl gelatin, 10 μl of 1 M glyceraldehyde and 127.5 μl DPBS. The negative control contained 112.5 μl gelatin and 137.5 μl DPBS. A 5% w/v niacinamide (“N”) composition was used for a benchmark comparison. The niacinamide sample contained the same amounts of gelatin, glyceraldehyde and DPBS as the 5% NR sample. The plate containing the test samples was placed in a CO2 incubator (e.g., THERMO SCIENTIFIC FORMA brand CO2 incubator available from Fisher Scientific, Waltham, Mass. or equivalent) and incubated for 24 hours at 37° C.
After 24 hours, the plate containing the test samples was removed from the incubator and placed in a SPECTRAMAX Plus brand spectrophotometer (available from Molecular Devices, Sunnyvale, Calif.). The spectrophotometer was set to detect fluorescence intensity (“FLR”) at 400/465 nm (ex/em). Glycation rate was determined by measuring FLR, at 0-hour (i.e., at the start of the test), 2-hour, 5-hour and 24-hour time points. The change in fluorescence intensity (“ΔFLR”) was determined by comparing the FLR of a well at a sampling time point to the 0-hour time point. To determine yellowness (i.e., b* value), a SPECTRAMAX Plus brand spectrophotometer was used to collect wavelength/absorbance pairs from 350 nm to 750 nm in 10 nm increments following the same time course as the FLR measurements (i.e., 0-hour, 2-hour, 5-hour and 24-hour). The wavelength/absorbance pairs were then converted to L*a*b* values by a computer using conversion software. The change in yellowness (“Ab*”) at a particular time point was determined by subtracting the b* value at the 0-hour time point from the b* value measured at the time point of interest. To correct for yellowness that is not due to the glycation reaction between the gelatin and glyceraldehyde, a blank well was set up for each treatment leg. The blank well contains every ingredient in the corresponding treatment leg except for the gelatin. The b* value of the blank well is subtracted from the b* value measured for each well before calculating the final Ab* value.

Structure (SMILES) | AVG HMGB1 released [1] | effect on the amount of HMGB1 released by keratinocytes exposed to CSE, relative to CSE test medium [1] | % reduction in glycation rate vs. pos. ctrl. ([2]; 0.1% w/v) | Δb* at 24-hr vs. 0-hour ([2]; 0.1% w/v) | ΔFLR at 24-hr vs. 0-hr ([2]; 0.1% w/v) | % reduction in glycation rate vs. pos. ctrl. ([2]; 0.5% w/v) | Δb* at 24-hr vs. 0-hour ([2]; 0.5% w/v) | ΔFLR at 24-hr vs. 0-hr ([2]; 0.5% w/v) | % reduction in glycation rate vs. pos. ctrl. ([2]; 1% w/v) | Δb* at 24-hr vs. 0-hour ([2]; 1% w/v) | ΔFLR at 24-hr vs. 0-hr ([2]; 1% w/v) | % reduction in glycation rate vs. pos. ctrl. ([2]; 5% w/v) | Δb* at 24-hr vs. 0-hour ([2]; 5% w/v) | ΔFLR at 24-hr vs. 0-hr ([2]; 5% w/v)
NC(=O)c1ccc[n+]([C@@H]2O[C@H](CO)[C@@H](O)[C@H]2O)c1 [NR, nicotinamide riboside chloride] | 2.0741 ng/mL | significantly reduce | 22.2% | 9.44 | 2729 | 63% | −4.24 | 1294 | 85.5% | −11.00 | 507 | 98.8% | −2.09 | 41
NC(=O)c1cccnc1 [N, niacinamide, reference compound] | 4.2790 ng/mL | no significant effect | – | – | – | – | – | – | – | – | – | 33.2% | 9.19 | 2341
